Each structure is given as a SMILES string. Peptide text beside a SMILES is read from it.

Data set [1] has as its target PPARγ. As to conditions: cited from earlier work.
Data set [2] concerns aP2 (FABP4) mRNA in SVF cells. In words: qPCR of PPARγ target gene aP2. It counts as cell-based, murine. The conditions noted are these: 5 μM compound, 3 days, normalized to GAPDH.
In data set [3] the test system is 3T3-L1 cells. In words: In vitro adipocyte differentiation, Oil Red O staining for lipid accumulation. The data set is classed as cell-based. As to conditions: differentiated 3T3-L1 preadipocytes, treated 2 or 3 days.
Data set [4] can be described thus: Aggregation seen in SPR running buffer. It counts as physicochemical. As to conditions: PBS + 5%DMSO.

As for `N[C@@H](Cc1c[nH]c2ccccc12)C(=O)N[C@@H](CCC(=O)O)C(=O)O` [G3335] (H-Trp-Glu-OH), the kd in data set [1] is 0.028 s⁻¹.

Consider `CCC(NC(=O)c1ccc2c(ccn2S(=O)(=O)c2cccc3ccccc23)c1)c1ccccc1` (stereo not shown) [SR2067, 1-(Naphthalen-1-ylsulfonyl)-N-(1-phenylpropyl)-1H-indole-5-carboxamide], for which the “expression levels of the PPARγ target gene aP2” value in data set [2] is given as “lower than those observed in cells treated with the full agonist rosiglitazone but higher than those in cells exposed to the antagonist SR1664”. In data set [3], the “oil red staining for lipid accumulation” value was “less than that of the full agonist rosiglitazone but higher than that of the antagonist SR1664”.

With `CN(CCOc1ccc(CC2SC(=O)NC2=O)cc1)c1ccccn1` (stereo not shown) [rosiglitazone, Rosiglitazone], the “concentration above which concentration-dependent aggregation occurs” value in data set [4] is recorded as “above 30 μM”.

These data come from PMC4819005 (ACS chemical biology, 2015).
